Molecular target: recombinant MPTPB enzyme (Mycobacterium tuberculosis, UniProt I6WXK4)
Assay: MPTPB enzymatic assay (DiFMUP substrate, fluorescence)
Assay type: biochemical
Settings: recombinant MPTPB 50 ng/ml, pH 6.6, 45 minutes at room temperature
Description: The compounds of the inventions have been tested in the following enzymatic assay:
Five μl of diluted compound or vehicle (100% DMSO) was distributed to a 96 well plate. 55 μl of DiFMUP 72.7 μM diluted in MPTPB buffer (20 mM Bis Tris HCl pH 6.6, 0.1% Brij 35, 1 mM DL-Dithiothreitol) was added, followed by 40 μl of recombinant MPTPB enzyme (50 ng/ml) diluted in MPTPB buffer in order to start the reaction. After 45 minutes incubation at room temperature fluorescence intensity was measured on a Perkin-Elmer Fusion spectrofluorimeter (excitation at 355 nm, emission at 460 nm, for 0.2 s).
Examples of inhibitory activities for compounds of the invention are set out in Table I below.

recombinant MPTPB enzyme, sequence (I6WXK4 whole entry, looked up): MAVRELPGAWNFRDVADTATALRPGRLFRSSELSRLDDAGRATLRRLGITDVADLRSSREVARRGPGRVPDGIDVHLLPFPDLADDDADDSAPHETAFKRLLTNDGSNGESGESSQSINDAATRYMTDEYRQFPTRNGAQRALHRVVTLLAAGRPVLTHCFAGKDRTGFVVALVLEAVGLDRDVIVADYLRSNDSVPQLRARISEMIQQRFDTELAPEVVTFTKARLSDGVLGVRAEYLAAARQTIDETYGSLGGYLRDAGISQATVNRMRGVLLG

Row | SMILES | IC50
1 | CCCCCCCCCCCCNS(=O)(=O)c1ccc(CN(Cc2ccccc2F)C(=O)C(=O)O)s1 [Example 6, [({5-[(dodecylamino)sulfonyl]-2-thienyl}methyl)(2-fluorobenzyl)amino]-(oxo)acetic acid] | 740 nM
2 | O=C(O)C(=O)N(Cc1cccc(Cl)c1)Cc1ccc(S(=O)(=O)NCCC(c2ccccc2)c2ccccc2)s1 [Example 14, {(3-chlorobenzyl) [(5-{[(3,3-diphenylpropyl)amino]sulfonyl}-2-thienyl)-methyl]amino}(oxo)acetic acid] | 790 nM
3 | CC(CNS(=O)(=O)c1ccc(CN(Cc2cccc(Cl)c2)C(=O)C(=O)O)s1)c1ccc(Cl)cc1 (stereo not drawn) [Example 24, ((3-chlorobenzyl){[5-({[2-(4-chlorophenyl)propyl]amino}sulfonyl)-2-thienyl]methyl}amino)(oxo)acetic acid] | 770 nM

Source: patent US20090018169A1, “Sulfonamide Derivatives for the Treatment of Bacterial Infections” (Laboratoires Serono SA, priority 2006, published 2009)
